Reference: patent publication US20250032636A1, “Phage-Drug Conjugate” (The University of Sydney, priority 2021, published 2025)
Read-outs that look alike come from different tables or passages of the source.

Legend:
P. aeruginosa W.T. PAO1 = assay: Minimum inhibitory concentration (MIC), broth microdilution; type: cell-based, Pseudomonas aeruginosa; conditions: 37° C., 24 h
Method: The minimum inhibitory concentration (MIC) of the antimicrobial agents was measured using the broth microdilution technique. A bacterial culture medium with 10^5-10^6 CFU mL^−1 was prepared freshly in Mueller-Hinton (MH) broth and added to a 2-fold serial dilution of antimicrobial agents in 96-well microplates. A cell-only control and a medium-only control were also included in the same microplate. The 96-well microplates were incubated at 37° C. for 24 h. MIC was determined to be the concentration of antimicrobial agents at which the optical density (OD600) was equal to that of a medium-only control using a multimode microplate reader (VICTOR™ X4, Perkin-Elmer). The MIC can also be recorded as the lowest concentration preventing visible bacterial growth after 24 h.

P. aeruginosa biofilm [1] = assay: Biofilm dispersal assay, crystal violet staining of biofilm biomass; type: cell-based, Pseudomonas aeruginosa PAO1
Method: (§1) A Pseudomonas aeruginosa PAO1 inoculum was freshly prepared by inoculating one colony in 10 mL of LB broth and incubating on an orbital shaker at 220 rpm at 37° C. for 16-17 h. The bacterium culture medium was diluted 200-fold to an optical density at 600 nm (OD600) between 0.003-0.005 in M9 minimal medium (containing 48 mM Na2HPO4, 22 mM KH2PO4, 9 mM NaCl, 19 mM NH4Cl, 2 mM MgSO4, 0.1 mM CaCl2), and 20 mM glucose, pH 7.0). This medium was freshly prepared for each experiment.
For the biofilm inhibition assay, various treatment formulations were added to the 24-well microtiter plates simultaneously as cell culture media placement. The plates were incubated on an orbital shaker at 180 rpm for 6 h incubation at 37° C. For this 6 h biofilm dispersal assay, the plates were incubated on an orbital shaker at 180 rpm for 6 h at 37° C. for biofilm formation. Planktonic bacteria were removed, and 1 mL of fresh M9 minimal medium was added to each well, followed by each treatment addition. […]
The concentrations of each component used for the treatments would be based on their individual effects on biofilm dispersal. […]
(§2) The biofilm biomass was analysed by crystal violet (CV) staining. The biofilm on each well surface of the plates was washed once with 1 mL PBS before CV staining. 1 mL of 0.1% CV solution made by a 1:20 dilution of 2% CV aqueous solution in PBS. The CV stained biofilm was washed twice with 1 mL PBS after 20 min incubation. The remaining CV stained biofilm was dissolved in 33% glacial acetic acid and quantified by measuring the absorbance at 550 nm (OD550) using a multimode microplate reader (VICTOR™ X4, Perkin-Elmer). All biofilm assays were performed in two independent experiments.
(§3) Biofilm dispersal and bacterial viability assays were conducted as described above using samples set out in Table 2. A graph illustrating the effects of different POEGA-b-PPFPA conjugated formulations on biofilm dispersal are shown in FIG. 13 and on biofilm cell survival are shown in FIG. 14.

P. aeruginosa biofilm [2] = assay: Biofilm formation inhibition assay, crystal violet staining; type: cell-based, Pseudomonas aeruginosa PAO1; conditions: 6 h
Method: as §1
For the biofilm inhibition assay, various treatment formulations were added to the 24-well microtiter plates simultaneously as cell culture media placement. The plates were incubated on an orbital shaker at 180 rpm for 6 h incubation at 37° C. For this 6 h biofilm dispersal assay, the plates were incubated on an orbital shaker at 180 rpm for 6 h at 37° C. for biofilm formation. Planktonic bacteria were removed, and 1 mL of fresh M9 minimal medium was added to each well, followed by each treatment addition. The plates were incubated for a further 2.5-3 h before quantifying the biofilm biomass and viabilities of biofilm bacteria.
as §2

[3] = tested on: P. aeruginosa biofilm bacteria; assay: Biofilm bacteria viability by CFU counting (drop-plate method); type: cell-based, Pseudomonas aeruginosa PAO1; conditions: FIG. 8; single component alone (AMK 4 or 8 μg/mL, nitroxide 2 mM, phage 10^6 PFU/mL); 2 h treatment
Method: The cells in the treated and untreated groups were counted using the drop-plated method to determine the biofilm bacteria viability. Biofilms on the surface of the wells were rinsed with once 1 mL PBS and then were resuspended in 1 mL PBS. The 24-well plates were placed in an ultrasonication bath for 5 min before viable cells count assay. The re-suspended biofilm bacteria were serially diluted 10-fold (10^−1 to 10^−10) in PBS, and 10 μL of each dilution was dropped onto MH agar plates in duplicate, which were incubated at 37° C. overnight. The results are presented as CFU mL^−1. A graph illustrating the effects of different POEGA-b-PVBA conjugated formulations on biofilm cell survival are shown in FIG. 8.
as §3

P. aeruginosa biofilms = assay: Confocal microscopy of LIVE/DEAD stained biofilms; type: cell-based, Pseudomonas aeruginosa; conditions: nitroxide at 2 mM; LIVE/DEAD staining, FIG. 9
Method: For microscopy analysis, P. aeruginosa biofilms were grown in glass-bottom 24-well plates (MatTek Corporation, Ashland MA, USA) for 6 h. After 3 h treatment, biofilms were rinsed twice with PBS before being stained with LIVE/DEAD® BacLight™ bacterial viability kit reagents (L-7007, Molecular Probes) according to the manufacturer's procedure. According to the manufacturer's procedure, 1 to 10 dilution of each of the two components was freshly prepared with PBS. 0.3 mL of the mixed solution was added to each well for 20 min incubation, and the plate was kept in the dark condition. The samples were analysed using confocal laser scanning microscopy (CLSM) with a Nikon A1 confocal microscope. Representative confocal images showing P. aeruginosa biofilms treated with POEGA-b-PVBA conjugated formulations are shown in FIG. 9.

NCC[C@H](O)C(=O)N[C@@H]1C[C@H](N)[C@@H](O[C@H]2O[C@H](CN)[C@@H](O)[C@H](O)[C@H]2O)[C@H](O)[C@H]1O[C@H]1O[C@H](CO)[C@@H](O)[C@H](N)[C@H]1O [AMK, amikacin]
MIC (P. aeruginosa W.T. PAO1; Pseudomonas aeruginosa, PAO1, MH broth, read-out: MIC): 4 µg/mL
reduction of biofilm biomass of pre-established P. aeruginosa biofilm (P. aeruginosa biofilm [1]; AMK alone at 32 μg mL^−1, 8×MIC, 6 h biofilm, 2 h treatment): 10%
effect on biofilm dispersal (P. aeruginosa biofilm [1]; cotreatment study FIG. 7, AMK 4 or 8 μg/ml, phage 10^6 PFU mL^−1, 6 h biofilm, 2 h treatment): did not have an effect
effect on inhibiting the formation of biofilms (P. aeruginosa biofilm [2]; AMK at a higher concentration than 4 μg mL^−1): strong effect
concentration at which biofilm formation was inhibited (P. aeruginosa biofilm [2]; added with inoculated culture): 4 µg/mL
survival of biofilm bacteria [3]: did not affect

CC1(C)CC(N)CC(C)(C)N1[O] [nitroxide, 4-amino-2,2,6,6-tetramethyl-piperidinyloxyl]
MIC (P. aeruginosa W.T. PAO1; MH broth): 6 mM
P. aeruginosa biofilm dispersal (P. aeruginosa biofilm [1]; comparative example, FIG. 13A, printed: nitroxide agent alone at AMK concentration of 8 μg/mL): about 30%
reduction of biofilm biomass (P. aeruginosa biofilm [1]; cotreatment study FIG. 7, nitroxide 2 mM, phage 10^6 PFU mL^−1, AMK 4 and 8 μg mL^−1, POEGA-b-PVBA linker, 2 h treatment): about 30%
P. aeruginosa biofilm dispersal (P. aeruginosa biofilm [1]; nitroxide alone at 2 mM, 6 h biofilm, 2 h treatment): 30%
P. aeruginosa biofilm dispersal (P. aeruginosa biofilm [1]; nitroxide alone at 5 mM, 6 h biofilm, 2 h treatment): 70%
inhibition of biofilm formation (P. aeruginosa biofilm [2]; nitroxide concentration range of 1 to 5 mM): significantly inhibited biofilm formation
survival of biofilm bacteria [3]: did not affect
biofilm biovolume, confocal (P. aeruginosa biofilms): greatly reduced biofilm biovolume
